Consider 24 compounds from paper PMC7084386, “Sulfonamide Inhibition Studies of an α-Carbonic Anhydrase from Schistosoma mansoni, a Platyhelminth Parasite Responsible for Schistosomiasis” (International Journal of Molecular Sciences, 2020).

The assay concerns the target T1, SmCA (Schistosoma mansoni, UniProt A0A4Y5UX87).
T1 construct: rSmCA N21-A298, signal peptide and C-terminal GPI-anchoring signal removed; Igk leader, C-terminal myc and His6 tags; secreted by CHO-S cells, IMAC; codon-optimized gene; native ~37 kDa GPI-linked glycoprotein
T1 sequence (A0A4Y5UX87 21-298): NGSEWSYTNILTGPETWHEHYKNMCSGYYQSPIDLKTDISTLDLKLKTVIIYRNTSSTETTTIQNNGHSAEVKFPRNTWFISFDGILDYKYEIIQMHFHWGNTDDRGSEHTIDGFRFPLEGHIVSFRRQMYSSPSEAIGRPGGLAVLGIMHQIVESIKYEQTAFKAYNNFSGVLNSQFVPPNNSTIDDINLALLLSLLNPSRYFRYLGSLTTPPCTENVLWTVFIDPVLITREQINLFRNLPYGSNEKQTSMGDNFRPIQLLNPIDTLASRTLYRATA
Briefly: stopped-flow CO2 hydrase assay. It counts as biochemical. An excerpt: stopped-flow CO2 hydrase assay on SmCA

Like-named read-outs stand apart in the source and are kept apart here.

In the case of `Nc1cc(C(F)(F)F)c(S(N)(=O)=O)cc1S(N)(=O)=O` [compound 11, 11], the Ki (read-out: SmCA ^b) amounted to 183 ± 9.1 nM.
On the same count and under the same terms, for `Nc1nccc(Nc2ccc(S(N)(=O)=O)cc2)n1` [compound 19, 19] the value was 1830 ± 36.6 nM; for `Cn1nc(S(N)(=O)=O)sc1=N` [compound 14, 14], 325 ± 6.5 nM.
Turning to `NS(=O)(=O)c1ccc(O)cc1` [compound 15, 15], the Ki (read-out: SmCA ^b) was found to be 758 ± 26.5 nM.
Take `Nc1ccc(S(N)(=O)=O)cc1F` [compound 7, 7]: where the note is “read-out: SmCA ^b”, the Ki was 3190 ± 70 nM.
With `NS(=O)(=O)c1cc(Cl)cc(Cl)c1O` [compound 10, 10], the Ki (read-out: SmCA ^b) worked out at 9270 ± 185 nM.
Regarding `Nc1cccc(S(N)(=O)=O)c1` [compound 1, 1], under “read-out: SmCA ^b”, the Ki is 8420 ± 177 nM.
With `Cc1ccc(S(N)(=O)=O)cc1` [compound 4, 4], the Ki (read-out: SmCA ^b) was found to be 4530 ± 90 nM.
Same read-out and setting: for `Nc1ccc(S(N)(=O)=O)cc1Cl` [compound 8, 8] the value was 737 ± 19.1 nM; for `Nc1ccc(S(=O)(=O)NCCc2ccc(S(N)(=O)=O)cc2)cc1` [compound 24, 24], 183 ± 4.5 nM; for `NS(=O)(=O)c1ccc(CO)cc1` [compound 16, 16], 1460 ± 32.1 nM.
Turning to `Nc1ccc(S(=O)(=O)Nc2nnc(S(N)(=O)=O)s2)cc1` [compound 20, 20], the Ki (read-out: SmCA ^b) was 124 ± 5.9 nM.
Turning to `Nc1nnc(S(N)(=O)=O)s1` [compound 13, 13], the Ki (read-out: SmCA ^b) was found to be 137 ± 6.5 nM.
As to `Nc1ccc(S(=O)(=O)Nc2ccc(S(N)(=O)=O)cc2)cc1` [compound 22, 22], for the setting “read-out: SmCA ^b”, the Ki turned out to be 550 ± 14.8 nM.
As to `Nc1cc(Cl)c(S(N)(=O)=O)cc1S(N)(=O)=O` [compound 12, 12], the Ki (read-out: SmCA ^b) worked out at 645 ± 19.9 nM.
`NCCc1ccc(S(N)(=O)=O)cc1` [compound 6, 6] showed a Ki of 7240 ± 144 nM.
`NS(=O)(=O)c1ccc(CCO)cc1` [compound 17, 17]: the Ki (read-out: SmCA ^b) was determined as 606 ± 21.3 nM.
On to `NCc1ccc(S(N)(=O)=O)cc1` [compound 5, 5], for which the Ki (read-out: SmCA ^b) worked out at 9560 ± 191 nM.
Same read-out and setting: for `NS(=O)(=O)c1ccc(C(=O)O)cc1` [compound 18, 18] the value was 821 nM; for `Nc1ccc(S(N)(=O)=O)cc1Br` [compound 9, 9], 808 ± 16.9 nM.
For `NS(=O)(=O)c1cccc(S(N)(=O)=O)c1` [compound 3, 3], the Ki (read-out: SmCA ^b) was determined as 916 ± 23.8 nM.
On the same count and under the same terms, to `Nc1ccc(S(=O)(=O)NCc2ccc(S(N)(=O)=O)cc2)cc1` [compound 23, 23] belongs 524 ± 15.7 nM; to `Nc1ccc(S(N)(=O)=O)cc1` [compound 2, 2], 6820 ± 150 nM; to `NS(=O)(=O)c1ccc(CCNS(=O)(=O)c2ccc([N+](=O)[O-])cc2CO)cc1` [compound 21, 21], 163 ± 6.5 nM.
